Biological target: T1, human α4/β2 nicotinic receptors (Homo sapiens, UniProt P17787+P43681)
T1 construct: expressed in transfected cells; host or cells: Xenopus laevis oocytes injected with α4/β2 RNA (BMSC-injected and non-injected control oocytes)
Assay: Two electrode voltage clamp recordings of acetylcholine chloride concentration response in Xenopus laevis oocytes expressing human α4/β2 nicotinic receptors
Format: cell-based
Experimental: Electrophysiological Recordings. The last set of experiments was designed to investigate survival and lifespan differences between frog oocytes injected with BMSC and non-injected oocytes. Both groups were carefully maintained under the same conditions for a prolonged period of time. […] Whole cell currents were measured at room temperature, 48 hours after RNA injection.
Finally, the last set of experiments was devoted to the study of the longevity of recipient oocytes with control test for their functional activity in the form of ability of oocytes to express α4/β2 subunits of human nicotinic receptors in their membranes 48h after RNA injection.

[1] = BMSC injected 44 day old oocytes

T1 sequence (P43681 29-627 limits assumed): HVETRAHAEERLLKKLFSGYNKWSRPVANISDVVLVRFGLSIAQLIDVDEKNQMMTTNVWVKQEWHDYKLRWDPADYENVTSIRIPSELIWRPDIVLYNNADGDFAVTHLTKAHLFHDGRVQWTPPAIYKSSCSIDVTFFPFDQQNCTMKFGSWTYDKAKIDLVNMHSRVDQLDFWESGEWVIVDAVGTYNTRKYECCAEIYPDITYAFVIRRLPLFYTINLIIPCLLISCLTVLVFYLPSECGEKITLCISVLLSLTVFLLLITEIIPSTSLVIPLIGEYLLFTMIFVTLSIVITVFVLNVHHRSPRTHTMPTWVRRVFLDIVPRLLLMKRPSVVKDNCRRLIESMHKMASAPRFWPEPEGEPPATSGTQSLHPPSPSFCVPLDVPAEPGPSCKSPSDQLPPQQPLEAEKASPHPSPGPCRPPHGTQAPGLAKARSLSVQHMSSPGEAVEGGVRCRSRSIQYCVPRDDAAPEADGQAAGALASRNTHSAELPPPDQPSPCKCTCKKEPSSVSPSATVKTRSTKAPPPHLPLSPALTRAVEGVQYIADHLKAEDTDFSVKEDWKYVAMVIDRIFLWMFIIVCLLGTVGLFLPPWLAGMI
T1 sequence (P17787 26-502): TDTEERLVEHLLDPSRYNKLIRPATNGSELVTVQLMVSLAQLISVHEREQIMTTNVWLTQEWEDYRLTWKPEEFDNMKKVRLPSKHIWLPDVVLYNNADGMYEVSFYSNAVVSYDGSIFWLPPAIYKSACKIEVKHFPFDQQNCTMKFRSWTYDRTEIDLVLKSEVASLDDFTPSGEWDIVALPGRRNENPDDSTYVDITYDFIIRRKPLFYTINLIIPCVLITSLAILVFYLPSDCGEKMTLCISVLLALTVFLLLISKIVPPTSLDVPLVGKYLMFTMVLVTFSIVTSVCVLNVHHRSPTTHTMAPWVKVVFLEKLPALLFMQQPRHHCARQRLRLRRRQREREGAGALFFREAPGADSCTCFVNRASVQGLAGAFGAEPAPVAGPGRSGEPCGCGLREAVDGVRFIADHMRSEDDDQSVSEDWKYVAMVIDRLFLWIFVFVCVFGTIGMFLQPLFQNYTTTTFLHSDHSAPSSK

SMILES: CC(=O)OCC[N+](C)(C)C.[Cl-] [Ach, acetylcholine chloride]
- nH1 (high-affinity Hill coefficient) [1]: 0.51
- nH2 (low-affinity Hill coefficient) [1]: 3.0
- times lower concentration of agonist for 50% of Ach evoked peak current amplitude, BMSC injected vs control oocytes (high-affinity sites): 2.7 times
- times lower concentration of Ach for 50% of peak current, BMSC injected vs control oocytes (low affinity sites): 3.8 times
- nH1 (high-affinity Hill coefficient) (non-injected control oocytes): 0.68
- nH2 (low-affinity Hill coefficient) (non-injected control oocytes): 2.6
